Test results: ChEMBL document CHEMBL5214984, “Identification of Organic Anion Transporter 2 Inhibitors: Screening, Structure-Based Analysis, and Clinical Drug Interaction Risk Assessment” (J Med Chem, 2022)

Legend:
[1] = Lipophilicity, log D of the compound; details: octanol/water
[2] = Dissociation constant, pKa of the compound; type: physicochemical
[3] = Inhibition of human OAT2 tv.1 variant expressed in HEK293 cells assessed as inhibition of [3H]cGMP uptake by scintillation analysis; type: ADME, cell-based; details: HEK293, 3 h

| logD [1] | pKa [2] | IC50 [3] [µM] | Structure (SMILES) |
| --- | --- | --- | --- |
| 2.35 | 3.6 | 13.7 | CCCc1nc2c(C)cc(-c3nc4ccccc4n3C)cc2n1Cc1ccc(-c2ccccc2C(=O)O)cc1 |
| -1.08 | 8.7 |  | CNS(=O)(=O)Cc1ccc2[nH]cc(CCN(C)C)c2c1 |
| 0.91 | 4.2 | 15.7 | CCCCc1nc(C)c(CC(=S)N(C)C)c(=O)n1Cc1ccc(-c2ccccc2-c2nnn[nH]2)cc1 |
|  |  | 16 | O=C1NC(=O)N(/N=C/c2ccc(-c3ccc([N+](=O)[O-])cc3)o2)C1O (stereo not given) |
| 0.65 | 3.2 |  | C[C@H]1CN(C[C@H](Cc2ccccc2)C(=O)NCC(=O)O)CC[C@@]1(C)c1cccc(O)c1 [ALVIMOPAN] |
| -0.08 | 6.3 |  | CNn1cc(C(=O)O)c(=O)c2cc(F)c(N3CCN(C)CC3)cc21 [AMIFLOXACIN] |
| 0.57 | 9.6 |  | CNCC[C@@H](Oc1ccccc1C)c1ccccc1 [ATOMOXETINE] |
|  |  | 16 | O=C1CN(/N=C/c2ccc(-c3ccc([N+](=O)[O-])cc3)o2)C(=O)N1 [DANTROLENE] |
| 0.23 | 4.2 | 1.9 | CCN(CC)C(=O)/C(C#N)=C/c1cc(O)c(O)c([N+](=O)[O-])c1 [ENTACAPONE] |
| 2.15 |  | 14.9 | COc1ccc(Cl)cc1C(=O)NCCc1ccc(S(=O)(=O)NC(=O)NC2CCCCC2)cc1 [GLYBURIDE] |
| 0.04 | 2.1 |  | N=C(N)NCCCNC(=O)[C@@H]1CCCCN1C(=O)[C@@H](CC1CCCCC1)NCC(=O)O [INOGATRAN] |
| -1.88 | 2.8 |  | COc1cccc(OC)c1C(=O)N[C@@H]1C(=O)N2[C@@H]1SC(C)(C)[C@@H]2C(=O)O [METHICILLIN] |
| 2.55 | 4.6 | 9.5 | CN(C)C(=O)CCSC(SCCC(=O)O)c1cccc(/C=C/c2ccc3ccc(Cl)cc3n2)c1 (stereo not given) [MK-571] |
| -1.19 | 9.3 |  | CC(C)(C)NCC(O)COc1cccc2c1CC(O)C(O)C2 (stereo not given) [NADOLOL] |
| -1.93 | 3.5 |  | Nc1nc2[nH]cc(CCc3ccc(C(=O)N[C@@H](CCC(=O)O)C(=O)O)cc3)c2c(=O)[nH]1 [PEMETREXED] |
| -1.17 | 4.8 |  | Cc1noc(NS(=O)(=O)c2ccc(N)cc2)c1C [SULFISOXAZOLE] |
| 0.42 | 6 | 11.5 | N[C@@H]1[C@H]2CN(c3nc4c(cc3F)c(=O)c(C(=O)O)cn4-c3ccc(F)cc3F)C[C@@H]12 [TROVAFLOXACIN] |
| -0.63 | 8.7 |  | CN(C)CCc1c[nH]c2ccc(C[C@H]3COC(=O)N3)cc12 [ZOLMITRIPTAN] |

| Structure (SMILES) | logD [1] | pKa [2] | IC50 [3] [µM] |
| --- | --- | --- | --- |
| O=C(O)CSc1nnc(Br)n1-c1ccc(C2CC2)c2ccccc12 | 0.46 | 3.4 | 11.5 |
| CN(C)CCCN1c2ccccc2CCc2ccccc21 [IMIPRAMINE] |  | 9 |  |
| COc1ccc2c(c1)c(CC(=O)O)c(C)n2C(=O)c1ccc(Cl)cc1 [INDOMETHACIN] | 1.03 |  | 2.9 |
| CC(C(=O)O)c1cccc(C(=O)c2ccccc2)c1 (stereo not given) [KETOPROFEN] | 0.21 |  | 14.9 |
| COC(=O)C1=C(C)NC(C)=C(C(=O)OC)C1c1ccccc1[N+](=O)[O-] [NIFEDIPINE] |  |  | 6.5 |
| Cc1ccc(O)c([C@H](CCN(C(C)C)C(C)C)c2ccccc2)c1 [TOLTERODINE] | 1.82 | 9.2 |  |
